Experimental data as given in PMC7960226 (Science (New York, N.Y.), 2020).
Read-outs that look alike come from different tables or passages of the source. Each block holds one compound with its values, some of them ahead of it.

Experiments:
[1] = molecular target: DRD1 (Homo sapiens, UniProt P21728); format: binding; settings: Table 2, DRD1; accurate to ±20%
[2] = molecular target: PRMT1 (Homo sapiens, UniProt Q99873); settings: Table 1, predicted target PRMT1
[3] = molecular target: SLC22A6 (Homo sapiens, UniProt Q4U2R8); assay: in vitro transporter assay, SLC22A6; settings: Table 1, predicted target SLC22A6
[4] = molecular target: OPRM1 (Homo sapiens, UniProt P35372); assay: safety panel assay, OPRM1; format: binding; settings: Table 2, OPRM1 (OPRM); accurate to ±20%
[5] = molecular target: CHRM2 (Homo sapiens, UniProt P08172); settings: Table 2, CHRM2; accurate to ±20%
[6] = molecular target: ADORA3 (Homo sapiens, UniProt P0DMS8); settings: Table 2, ADORA3; accurate to ±20%
[7] = molecular target: T1, SLCO2B1 (Homo sapiens, UniProt O94956); assay: in vitro transporter inhibition, SLCO2B1; format: biochemical; settings: Table 2, SLCO2B1; accurate to ±20%
T1 sequence (O94956 1-709): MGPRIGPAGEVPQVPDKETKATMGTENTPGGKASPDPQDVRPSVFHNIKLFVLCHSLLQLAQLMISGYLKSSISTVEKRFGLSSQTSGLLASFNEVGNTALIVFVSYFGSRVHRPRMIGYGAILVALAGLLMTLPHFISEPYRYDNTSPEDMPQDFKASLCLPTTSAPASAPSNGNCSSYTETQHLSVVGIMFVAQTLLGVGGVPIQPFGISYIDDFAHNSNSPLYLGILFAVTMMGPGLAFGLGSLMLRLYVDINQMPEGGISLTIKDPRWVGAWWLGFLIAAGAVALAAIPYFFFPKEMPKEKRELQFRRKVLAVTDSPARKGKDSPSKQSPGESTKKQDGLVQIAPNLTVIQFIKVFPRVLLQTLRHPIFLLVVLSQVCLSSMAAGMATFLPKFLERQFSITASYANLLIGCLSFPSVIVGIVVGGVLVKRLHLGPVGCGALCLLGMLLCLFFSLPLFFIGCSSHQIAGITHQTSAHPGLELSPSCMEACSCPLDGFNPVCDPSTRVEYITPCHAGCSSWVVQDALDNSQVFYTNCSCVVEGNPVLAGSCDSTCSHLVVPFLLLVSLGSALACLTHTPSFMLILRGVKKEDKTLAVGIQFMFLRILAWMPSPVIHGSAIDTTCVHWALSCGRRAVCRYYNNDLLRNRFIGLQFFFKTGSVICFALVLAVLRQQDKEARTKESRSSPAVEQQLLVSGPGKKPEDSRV

[8] = molecular target: PDE4D (Homo sapiens, UniProt Q08499); assay: in vitro assay, PDE4D; format: biochemical; settings: Table 2, PDE4D; accurate to ±20%
[9] = molecular target: PDE3A (Homo sapiens, UniProt Q14432); assay: safety panel assay, PDE3A; format: biochemical; settings: Table 2, PDE3A; accurate to ±20%
[10] = molecular target: T2, ADRA1A (Homo sapiens, UniProt P35348); settings: Table 2, ADRA1A; accurate to ±20%
T2 sequence (P35348 1-466): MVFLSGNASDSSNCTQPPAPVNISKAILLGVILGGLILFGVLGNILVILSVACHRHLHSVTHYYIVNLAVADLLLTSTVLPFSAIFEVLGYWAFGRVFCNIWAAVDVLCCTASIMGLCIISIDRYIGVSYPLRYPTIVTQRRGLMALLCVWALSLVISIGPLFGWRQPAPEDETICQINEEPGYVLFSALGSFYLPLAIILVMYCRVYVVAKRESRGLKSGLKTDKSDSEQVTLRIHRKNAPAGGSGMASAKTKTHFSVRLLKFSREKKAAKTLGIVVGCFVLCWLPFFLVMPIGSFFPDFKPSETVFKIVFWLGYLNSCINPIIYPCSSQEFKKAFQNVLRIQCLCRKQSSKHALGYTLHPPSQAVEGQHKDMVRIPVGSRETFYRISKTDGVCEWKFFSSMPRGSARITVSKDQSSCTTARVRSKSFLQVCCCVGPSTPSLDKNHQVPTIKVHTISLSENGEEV

[11] = molecular target: GABRA1 (Homo sapiens, UniProt P14867); assay: safety panel assay, GABRA1; format: binding; settings: Table 2, GABRA1; accurate to ±20%
[12] = system: BioMAP Diversity PLUS panel; assay: BioMAP Diversity PLUS panel of cell-based systems
[13] = molecular target: ACHE (Homo sapiens, UniProt P22303); settings: Table 2, ACHE; accurate to ±20%
[14] = molecular target: KCNH2 (Homo sapiens, UniProt Q12809)
[15] = molecular target: HRH3 (Homo sapiens, UniProt Q9Y5N1); settings: Table 2, HRH3; accurate to ±20%
[16] = molecular target: PTGS1 (Homo sapiens, UniProt P23219); settings: Table 2, PTGS1; accurate to ±20%
[17] = molecular target: T3, PTGS2 (Homo sapiens, UniProt P35354); assay: safety panel assay, PTGS2; format: biochemical; settings: Table 2, PTGS2; accurate to ±20%
T3 sequence (P35354 18-604): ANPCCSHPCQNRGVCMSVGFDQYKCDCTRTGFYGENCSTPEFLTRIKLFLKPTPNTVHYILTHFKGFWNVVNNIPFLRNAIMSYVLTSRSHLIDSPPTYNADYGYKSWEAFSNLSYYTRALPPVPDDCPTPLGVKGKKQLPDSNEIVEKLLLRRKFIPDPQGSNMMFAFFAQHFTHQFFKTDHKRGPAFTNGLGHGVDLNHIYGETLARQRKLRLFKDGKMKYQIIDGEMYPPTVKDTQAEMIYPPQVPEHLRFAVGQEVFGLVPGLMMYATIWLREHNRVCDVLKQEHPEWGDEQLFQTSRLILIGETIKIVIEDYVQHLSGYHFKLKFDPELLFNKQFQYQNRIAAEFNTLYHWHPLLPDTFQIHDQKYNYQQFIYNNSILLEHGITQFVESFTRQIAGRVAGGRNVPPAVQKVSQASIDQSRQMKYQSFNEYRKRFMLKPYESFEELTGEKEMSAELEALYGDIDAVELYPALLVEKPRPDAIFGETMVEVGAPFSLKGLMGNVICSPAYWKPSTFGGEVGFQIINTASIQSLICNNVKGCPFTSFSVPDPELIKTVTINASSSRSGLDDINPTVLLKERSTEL

[18] = molecular target: SLC18A2 (Homo sapiens, UniProt Q05940); assay: transporter inhibition, SLC18A2; format: biochemical; settings: Table 2, SLC18A2; accurate to ±20%
[19] = molecular target: T4, CHRM1 (Homo sapiens, UniProt P11229); settings: Table 2, CHRM1; an agonist effect was observed; accurate to ±20%
T4 sequence (P11229 1-460): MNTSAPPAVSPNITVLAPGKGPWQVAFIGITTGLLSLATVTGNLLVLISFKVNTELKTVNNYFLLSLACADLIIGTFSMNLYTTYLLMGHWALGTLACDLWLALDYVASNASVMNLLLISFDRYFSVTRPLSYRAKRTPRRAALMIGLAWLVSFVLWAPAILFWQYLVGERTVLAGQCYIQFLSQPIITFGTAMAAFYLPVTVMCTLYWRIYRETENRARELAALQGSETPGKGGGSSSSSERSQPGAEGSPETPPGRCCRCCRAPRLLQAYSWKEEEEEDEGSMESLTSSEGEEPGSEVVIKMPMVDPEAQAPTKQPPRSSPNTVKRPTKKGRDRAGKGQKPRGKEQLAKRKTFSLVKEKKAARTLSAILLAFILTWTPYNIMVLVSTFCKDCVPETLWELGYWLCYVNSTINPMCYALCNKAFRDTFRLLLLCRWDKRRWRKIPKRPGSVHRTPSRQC

[20] = molecular target: SLC6A2 (Homo sapiens, UniProt P23975); settings: Table 2, SLC6A2; accurate to ±20%
[21] = molecular target: DRD3 (Homo sapiens, UniProt P35462); settings: Table 2, DRD3; accurate to ±20%
[22] = molecular target: SLC6A3 (Homo sapiens, UniProt Q01959); assay: safety panel assay, SLC6A3; format: biochemical; settings: Table 2, SLC6A3; accurate to ±20%
[23] = Madin-Darby canine kidney permeability assay; settings: dog, MDCK
[24] = molecular target: KDM4C (Homo sapiens, UniProt Q9H3R0); assay: in vitro assay, KDM4C; format: biochemical; settings: Table 2, KDM4C; accurate to ±20%
[25] = molecular target: COMT (Homo sapiens, UniProt P21964); assay: in vitro inhibition of COMT
[26] = molecular target: TY3H (Homo sapiens, UniProt P07101); assay: in vitro assay, TY3H; format: biochemical; settings: Table 2, TY3H; accurate to ±20%
[27] = molecular target: ALOX5 (Homo sapiens, UniProt P09917); assay: in vitro assay, ALOX5; format: biochemical
[28] = Pharmacokinetics in rats after i.v. and oral administration; settings: for Cmax: 10 mg/kg, oral 10 mg/kg
[29] = molecular target: FTO (Homo sapiens, UniProt Q9C0B1); assay: in vitro assay, FTO; format: biochemical; settings: Table 2, FTO; accurate to ±20%

DRD1, sequence (P21728 whole entry, species assumed): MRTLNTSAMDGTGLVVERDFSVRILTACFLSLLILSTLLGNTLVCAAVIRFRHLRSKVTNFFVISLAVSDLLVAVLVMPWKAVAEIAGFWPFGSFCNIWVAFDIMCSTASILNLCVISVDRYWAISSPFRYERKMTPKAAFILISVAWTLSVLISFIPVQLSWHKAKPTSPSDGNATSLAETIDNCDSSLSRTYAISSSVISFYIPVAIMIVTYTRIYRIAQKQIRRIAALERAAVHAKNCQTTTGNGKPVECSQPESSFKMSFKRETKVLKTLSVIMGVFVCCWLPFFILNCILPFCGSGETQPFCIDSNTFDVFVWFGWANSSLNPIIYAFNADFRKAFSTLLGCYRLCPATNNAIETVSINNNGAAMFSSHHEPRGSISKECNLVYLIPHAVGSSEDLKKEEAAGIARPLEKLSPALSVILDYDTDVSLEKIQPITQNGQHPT
ALOX5, sequence (P09917 whole entry, species assumed): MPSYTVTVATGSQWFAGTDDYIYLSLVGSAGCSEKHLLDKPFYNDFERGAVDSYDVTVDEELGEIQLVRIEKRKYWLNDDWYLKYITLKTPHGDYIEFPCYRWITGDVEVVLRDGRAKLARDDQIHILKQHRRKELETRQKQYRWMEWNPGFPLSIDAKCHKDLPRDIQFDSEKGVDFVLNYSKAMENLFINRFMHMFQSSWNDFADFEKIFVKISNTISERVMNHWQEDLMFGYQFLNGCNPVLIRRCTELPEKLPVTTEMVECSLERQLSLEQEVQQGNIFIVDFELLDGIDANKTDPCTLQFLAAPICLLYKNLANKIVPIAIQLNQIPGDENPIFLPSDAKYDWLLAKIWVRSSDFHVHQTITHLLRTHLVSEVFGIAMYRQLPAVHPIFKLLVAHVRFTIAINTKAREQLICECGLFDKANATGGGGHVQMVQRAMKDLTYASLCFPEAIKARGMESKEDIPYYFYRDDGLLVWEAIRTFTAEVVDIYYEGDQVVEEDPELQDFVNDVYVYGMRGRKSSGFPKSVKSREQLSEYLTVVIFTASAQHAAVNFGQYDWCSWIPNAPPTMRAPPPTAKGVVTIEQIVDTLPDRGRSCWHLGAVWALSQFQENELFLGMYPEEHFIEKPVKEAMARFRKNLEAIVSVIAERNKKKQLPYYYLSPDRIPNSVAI
CHRM2, sequence (P08172 whole entry, species assumed): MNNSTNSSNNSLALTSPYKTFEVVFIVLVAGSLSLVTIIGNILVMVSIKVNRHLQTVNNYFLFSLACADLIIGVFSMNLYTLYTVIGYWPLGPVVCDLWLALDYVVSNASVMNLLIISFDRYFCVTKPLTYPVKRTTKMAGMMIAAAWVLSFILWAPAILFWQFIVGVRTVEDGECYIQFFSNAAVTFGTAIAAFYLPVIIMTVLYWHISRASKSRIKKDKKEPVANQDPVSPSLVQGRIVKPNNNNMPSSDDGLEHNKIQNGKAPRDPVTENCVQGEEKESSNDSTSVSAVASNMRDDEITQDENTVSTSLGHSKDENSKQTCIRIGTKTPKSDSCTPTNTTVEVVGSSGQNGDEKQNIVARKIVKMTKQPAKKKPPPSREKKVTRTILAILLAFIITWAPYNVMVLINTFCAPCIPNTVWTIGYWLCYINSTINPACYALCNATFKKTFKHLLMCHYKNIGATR
COMT, sequence (P21964 whole entry): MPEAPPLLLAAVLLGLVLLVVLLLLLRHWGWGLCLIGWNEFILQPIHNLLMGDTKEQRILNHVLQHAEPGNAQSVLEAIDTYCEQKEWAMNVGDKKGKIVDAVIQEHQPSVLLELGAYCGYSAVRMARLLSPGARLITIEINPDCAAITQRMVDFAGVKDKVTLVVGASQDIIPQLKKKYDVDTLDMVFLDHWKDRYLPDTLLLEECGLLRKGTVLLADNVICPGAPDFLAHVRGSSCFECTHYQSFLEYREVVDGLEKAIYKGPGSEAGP
SLC18A2, sequence (Q05940 whole entry, species assumed): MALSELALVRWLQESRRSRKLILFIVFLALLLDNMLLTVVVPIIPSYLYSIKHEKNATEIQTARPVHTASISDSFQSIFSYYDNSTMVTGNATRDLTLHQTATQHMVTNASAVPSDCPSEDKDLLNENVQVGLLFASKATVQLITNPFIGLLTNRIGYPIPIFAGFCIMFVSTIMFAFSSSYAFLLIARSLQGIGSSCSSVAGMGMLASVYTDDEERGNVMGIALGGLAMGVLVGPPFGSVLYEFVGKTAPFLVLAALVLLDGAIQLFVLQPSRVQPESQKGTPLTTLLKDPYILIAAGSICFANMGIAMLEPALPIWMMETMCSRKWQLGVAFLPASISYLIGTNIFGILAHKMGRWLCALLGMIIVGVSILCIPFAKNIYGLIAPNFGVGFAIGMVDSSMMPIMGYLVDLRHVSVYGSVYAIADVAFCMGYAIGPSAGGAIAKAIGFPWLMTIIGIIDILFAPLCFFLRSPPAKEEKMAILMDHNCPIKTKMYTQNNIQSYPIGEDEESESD
OPRM1, sequence (P35372 whole entry, species assumed): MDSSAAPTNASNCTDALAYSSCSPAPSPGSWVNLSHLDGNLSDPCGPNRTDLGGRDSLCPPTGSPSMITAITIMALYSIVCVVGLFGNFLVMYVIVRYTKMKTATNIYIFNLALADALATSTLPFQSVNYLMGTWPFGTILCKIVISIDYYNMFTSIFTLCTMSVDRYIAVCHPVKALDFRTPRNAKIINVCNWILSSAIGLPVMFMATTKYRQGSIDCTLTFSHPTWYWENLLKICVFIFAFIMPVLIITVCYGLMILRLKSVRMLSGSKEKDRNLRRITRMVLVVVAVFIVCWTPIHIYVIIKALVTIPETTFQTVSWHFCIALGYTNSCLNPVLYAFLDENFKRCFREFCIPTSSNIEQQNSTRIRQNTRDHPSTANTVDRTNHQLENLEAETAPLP
KCNH2, sequence (Q12809 whole entry): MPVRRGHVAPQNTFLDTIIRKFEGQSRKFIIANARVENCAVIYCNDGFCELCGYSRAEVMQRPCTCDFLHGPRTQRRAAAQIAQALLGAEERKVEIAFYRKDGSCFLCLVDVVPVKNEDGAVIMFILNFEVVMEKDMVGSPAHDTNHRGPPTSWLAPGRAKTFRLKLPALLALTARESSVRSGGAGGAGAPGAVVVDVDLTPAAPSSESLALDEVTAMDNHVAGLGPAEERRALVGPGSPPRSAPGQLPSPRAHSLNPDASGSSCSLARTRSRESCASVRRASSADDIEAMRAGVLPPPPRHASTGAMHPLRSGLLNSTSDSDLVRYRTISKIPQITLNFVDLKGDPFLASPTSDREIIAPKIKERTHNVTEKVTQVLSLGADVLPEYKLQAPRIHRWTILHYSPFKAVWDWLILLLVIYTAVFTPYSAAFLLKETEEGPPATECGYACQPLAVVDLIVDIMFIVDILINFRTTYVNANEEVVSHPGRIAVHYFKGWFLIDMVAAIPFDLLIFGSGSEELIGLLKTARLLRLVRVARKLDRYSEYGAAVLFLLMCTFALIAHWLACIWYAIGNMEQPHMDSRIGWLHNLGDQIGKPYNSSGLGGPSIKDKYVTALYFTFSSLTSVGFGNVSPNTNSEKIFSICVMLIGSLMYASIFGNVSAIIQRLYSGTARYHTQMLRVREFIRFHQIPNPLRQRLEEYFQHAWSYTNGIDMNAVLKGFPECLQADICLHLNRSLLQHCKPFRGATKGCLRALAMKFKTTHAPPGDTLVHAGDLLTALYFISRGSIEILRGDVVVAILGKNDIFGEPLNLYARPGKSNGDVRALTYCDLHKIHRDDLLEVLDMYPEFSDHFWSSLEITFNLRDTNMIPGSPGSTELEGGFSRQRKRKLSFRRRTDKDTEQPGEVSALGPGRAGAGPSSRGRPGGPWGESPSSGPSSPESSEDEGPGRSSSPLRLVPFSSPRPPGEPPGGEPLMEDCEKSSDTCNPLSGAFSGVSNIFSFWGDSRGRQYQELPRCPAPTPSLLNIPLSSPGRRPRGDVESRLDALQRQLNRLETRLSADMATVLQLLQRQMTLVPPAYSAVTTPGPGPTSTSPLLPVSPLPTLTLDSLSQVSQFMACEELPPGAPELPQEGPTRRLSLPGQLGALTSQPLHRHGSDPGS
SLC22A6, sequence (Q4U2R8 whole entry): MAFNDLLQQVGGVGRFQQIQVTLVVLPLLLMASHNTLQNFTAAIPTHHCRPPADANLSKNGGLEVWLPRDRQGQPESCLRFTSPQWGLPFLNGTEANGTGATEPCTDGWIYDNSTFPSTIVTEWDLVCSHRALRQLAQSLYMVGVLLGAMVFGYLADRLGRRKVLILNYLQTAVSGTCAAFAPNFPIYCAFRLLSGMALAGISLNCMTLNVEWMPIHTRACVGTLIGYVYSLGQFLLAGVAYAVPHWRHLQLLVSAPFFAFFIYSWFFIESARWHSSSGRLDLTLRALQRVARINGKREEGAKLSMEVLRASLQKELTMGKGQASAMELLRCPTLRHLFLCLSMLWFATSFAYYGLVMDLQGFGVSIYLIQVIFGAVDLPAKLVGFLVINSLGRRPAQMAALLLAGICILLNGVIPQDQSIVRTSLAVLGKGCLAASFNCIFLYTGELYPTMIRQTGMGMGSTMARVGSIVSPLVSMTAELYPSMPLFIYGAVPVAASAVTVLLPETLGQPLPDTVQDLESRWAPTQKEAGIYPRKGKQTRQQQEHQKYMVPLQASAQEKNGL
TY3H, sequence (P07101 whole entry): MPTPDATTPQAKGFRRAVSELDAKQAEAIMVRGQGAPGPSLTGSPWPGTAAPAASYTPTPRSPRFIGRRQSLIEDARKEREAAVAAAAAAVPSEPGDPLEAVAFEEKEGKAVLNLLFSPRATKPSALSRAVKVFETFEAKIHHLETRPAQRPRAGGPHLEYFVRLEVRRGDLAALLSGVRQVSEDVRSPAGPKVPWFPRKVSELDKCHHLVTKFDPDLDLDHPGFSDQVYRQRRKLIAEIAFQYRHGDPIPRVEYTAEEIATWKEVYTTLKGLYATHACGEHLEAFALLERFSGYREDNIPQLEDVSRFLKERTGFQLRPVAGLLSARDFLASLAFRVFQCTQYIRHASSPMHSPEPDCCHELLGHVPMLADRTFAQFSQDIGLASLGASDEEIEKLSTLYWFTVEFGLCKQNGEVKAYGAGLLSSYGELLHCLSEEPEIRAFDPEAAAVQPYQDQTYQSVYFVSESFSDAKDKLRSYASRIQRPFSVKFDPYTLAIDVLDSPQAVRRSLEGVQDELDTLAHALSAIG

SMILES: O=C([O-])c1c(Cl)c(Cl)c(Cl)c(Cl)c1-c1c2cc(Br)c(=O)c(Br)c-2oc2c(Br)c([O-])c(Br)cc12.[Na+].[Na+] [D&C Red No. 28, Phloxine B]
Ki/IC50 Or EC50 [1]: 590 nM
Ki/IC50 [2]: 700 nM
Ki/IC50 [3]: 64 nM
Ki/IC50 Or EC50 [4]: 820 nM
Ki/IC50 Or EC50 [5]: 680 nM
Ki/IC50 Or EC50 [6]: 480 nM
Ki/IC50 Or EC50 [7]: 600 nM
Ki/IC50 Or EC50 [8]: 940 nM
Ki/IC50 Or EC50 [9]: 130 nM
Ki/IC50 Or EC50 [10]: 480 nM

SMILES: O=C([O-])C1=NN(c2ccc(S(=O)(=O)[O-])cc2)C(=O)C1N=Nc1ccc(S(=O)(=O)[O-])cc1.[Na+].[Na+].[Na+] (stereo not drawn) [FD&C Yellow No. 5 (Tartrazine), Tartrazine]
Ki/IC50 Or EC50 [11]: 13000 nM
Ki/IC50 Or EC50 [1]: 23000 nM
Ki/IC50 Or EC50 [4]: 16000 nM
activity in the BioMAP cell-based systems ([12]; 1.1, 3.3, 10, 30 μM): no measurable activity

SMILES: CN(C)c1ccc2nc3ccc(=[N+](C)C)cc-3sc2c1 [Methylene Blue]
Ki/IC50 Or EC50 [5]: 190 nM
Ki/IC50 Or EC50 [13]: 90 nM
Ki/IC50 Or EC50 ([14]; human): 0.090 0.19 0.88 27.5 μM
Ki/IC50 Or EC50 [15]: 880 nM

SMILES: CCCCCCCC/C=C\CCCCCCCC(=O)O [Oleic acid]
Ki/IC50 Or EC50 [16]: 6700 nM
Ki/IC50 Or EC50 [17]: 3500 nM
Ki/IC50 Or EC50 [18]: 4700 nM

SMILES: CC(=O)[O][Hg][c]1ccccc1 [Phenylmercuric acetate]
Ki/IC50 Or EC50 [1]: 2200 nM
Ki/IC50 Or EC50 [19]: 8100 nM
Ki/IC50 Or EC50 [20]: 1700 nM
Ki/IC50 Or EC50 [21]: 24 nM
Ki/IC50 Or EC50 ([14]; Table 2, KCNH2, accurate to ±20%): 6.2 µM
Ki/IC50 Or EC50 [22]: 1800 nM
Ki/IC50 Or EC50 [18]: 360 nM

Papp [23]: 11.7 ×10⁻⁶ cm/s
Ki/IC50 Or EC50 [24]: 39000 nM
IC50 [25]: 15 nM
Ki/IC50 ([25]; Table 1, predicted target COMT): 15 nM
Ki/IC50 Or EC50 [26]: 1900 nM
IC50 [27]: 430 nM
Ki/IC50 Or EC50 ([27]; Table 2, ALOX5, accurate to ±20%): 430 nM
half-life ([28]; rat, blood, iv, 1 mg/kg): 4.9 h
Cmax ([28]; rat, blood, po, Oral Cmax, rats): 5 nM
i.v. AUC 0–24 (d.n.) ([28]; rats, i.v. 1 mg/kg, dose normalized): 6908 nM-hour
Cmax ([28]; read-out: Oral Cmax, rats, blood): < 8.9 nM
Ki/IC50 Or EC50 [29]: 3000 nM
SMILES: CCCOC(=O)c1cc(O)c(O)c(O)c1 [Propyl gallate]
Ki/IC50 Or EC50 [17]: 7200 nM
effect on proliferation ([12]; B and T cells, coronary artery smooth muscle cells, endothelial cells, fibroblasts, at 10 or 30 μM): antiproliferative
